Test results as given in US20260317272A1, “USE OF STROBILURIN TYPE COMPOUNDS FOR COMBATING PHYTOPATHOGENIC FUNGI CONTAINING AN AMINO ACID SUBSTITION F129L IN THE MITOCHONDRIAL CYTOCHROME B PROTEIN CONFERRING RESISTANCE TO QO INHIBITORS XVI” (priority 2023, published 2026).

Tests used:
Alternaria solani = experiment: Use Example 1: preventative fungicidal control of early blight on tomatoes (ALTESO P1); format: in vivo; conditions: 63 ppm, tomato, treated 1 day before inoculation, F129L strain, assessed after 5 days, untreated 85
Experimental: (§1) The compound was dissolved in a mixture of acetone and/or dimethylsulfoxide and the wetting agent/emulsifier Wettol, which is based on ethoxylated alkylphenoles, in a ratio (volume) solvent-emulsifier of 99 to 1 to give a total volume of 5 ml. Subsequently, water was added to total volume of 100 ml. This stock solution was then diluted with the described solvent-emulsifier-water mixture to the final concentration given in the tables below.
Use Example 1. Preventative Fungicidal Control of Early Blight on Tomatoes (Alternaria solani) (ALTESO P1)
Young seedlings of tomato plants were grown in pots. These plants were sprayed to run-off with previously described spray solution, containing the concentration of active ingredient or mixture mentioned in the table below. The next day the treated plants were inoculated with an aqueous suspension of Alternaria solani. The strain used contains the amino acid substitution F129L in the mitochondrial cytochrome b protein conferring resistance to Qo inhibitors. Then the trial plants were immediately transferred to a humid chamber. After 5 days at 18 to 20° C. and a saturated relative humidity, the extent of fungal attack on the leaves was visually assessed as % diseased leaf area.

Phakopsora pachyrhizi [1] = experiment: Use Example 3: protective control of soybean rust on soybeans (PHAKPA P2); format: in vivo; conditions: 16 ppm, 2 days before inoculation, F129L strain, up to 14 days, untreated 90
Experimental: as §1
Use Example 3. Protective Control of Soybean Rust on Soybeans Caused by Phakopsora pachyrhizi (PHAKPA P2)
(§2) Leaves of potted soybean seedlings were sprayed to run-off with the previously described spray solution, containing the concentration of active ingredient or their mixture as described below. The plants were allowed to air-dry. The trial plants were cultivated for 2 days in a greenhouse chamber at 23-27° C. and a relative humidity between 60 and 80%. Then the plants were inoculated with spores of Phakopsora pachyrhizi. The strain used contains the amino acid substitution F129L in the mitochondrial cytochrome b protein conferring resistance to Qo inhibitors. To ensure the success the artificial inoculation, the plants were transferred to a humid chamber with a relative humidity of about 95% and 20 to 24° C. for 24 hr. The trial plants were cultivated for up to 14 days in a greenhouse chamber at 23 to 27° C. and a relative humidity between 60 and 80%. The extent of fungal attack on the leaves was visually assessed as % diseased leaf area, the disease level of untreated controls was usually higher than 85%.

Phakopsora pachyrhizi [2] = experiment: Use Example 4: protective control of soybean rust on soybeans (PHAKPA P6); format: in vivo; conditions: 16 ppm, six days before inoculation, F129L strain, up to 14 days, untreated 90
Experimental: as §1
Use Example 4. Protective Control of Soybean Rust on Soybeans Caused by Phakopsora pachyrhizi (PHAKPA P6)
as §2, with “active ingredient as described” for “active ingredient or their mixture as described”, “cultivated for six days in” for “cultivated for 2 days in”, “95% and 23 to 27°” for “95% and 20 to 24°”, “23 to 27° C. for” for “20 to 24° C. for”

Puccinia striiformis = experiment: Use Example 9: curative control of wheat stripe rust on wheat (PUCCST K4); format: in vivo; conditions: 16 ppm, untreated 90%
Experimental: as §1
Use Example 9. Curative Control of Wheat Stripe Rust on Wheat Caused by Puccinia striiformis (PUCCST K4)
The first two developed leaves of potted wheat seedling were inoculated with spores of Puccinia striiformis. To ensure the success of the artificial inoculation, the plants were transferred to a chamber without light and a temperature of 5° C. for 24 h. Then the trial plants were cultivated for 3 days in a greenhouse chamber at 16° C. and a relative humidity of minimum 75%. The plants were sprayed to run-off with the previously described spray solution, containing the concentration of active ingredient or their mixture as described below. The plants were allowed to air-dry. Then the trial plants were cultivated for up to 12 days in a greenhouse chamber at 16° C. and a relative humidity of minimum 75%. The extent of fungal attack on the leaves was visually assessed as % diseased leaf area.

Puccinia triticina = experiment: Use Example 7: preventative control of brown rust on wheat (PUCCRT P10); format: in vivo, Puccinia triticina (syn. P. recondita); conditions: 16 ppm, ten days before inoculation, 6 days, untreated 80
Experimental: as §1
Use Example 7. Preventative Control of Brown Rust on Wheat Caused by Puccinia triticina (Syn. P. recondita) (PUCCRT P10)
The first two developed leaves of potted wheat seedling were sprayed to run-off with previously described spray solution, containing the concentration of active ingredient or their mixture as described below. Ten days later the plants were inoculated with spores of Puccinia triticina. To ensure the success of the artificial inoculation, the plants were transferred to a humid chamber without light and a relative humidity of 95 to 99% and 20 to 24° C. for 24 h. Then the trial plants were cultivated for 6 days in a greenhouse chamber at 20-24° C. and a relative humidity between 65 and 70%. The extent of fungal attack on the leaves was visually assessed as % diseased leaf area.

Pyrenophora teres = experiment: Use Example 12: control of net blotch on barley (PYRNTE P4); format: in vivo, Pyrenophora (syn. Drechslera) teres; conditions: F129L strain, inoculated seven days later, 16 ppm, untreated 80%
Experimental: as §1
Use Example 12. Control of Net Blotch on Barley Caused by Pyrenophora teres (PYRNTE P4)
The first fully developed leaves of potted barley plants were sprayed to run-off previously described spray solution, containing the concentration of active ingredient or their mixture mentioned in the table below. Seven days later the treated plants were inoculated with an aqueous spore suspension of Pyrenophora (syn. Drechslera) teres. The strain used contains the amino acid substitution F129L in the mitochondrial cytochrome b protein conferring resistance to Qo inhibitors. After up to 19 days of cultivation at 20-24° C. and a relative humidity close to 70%, the extent of fungal attack on the leaves was visually assessed as % diseased leaf area.

SMILES | Diseased leaf area (%) (Alternaria solani) | Diseased leaf area (%) (Phakopsora pachyrhizi [1]) | Diseased leaf area (%) (Phakopsora pachyrhizi [2]) | Diseased leaf area (%) (Puccinia striiformis) | Diseased leaf area (%) (Puccinia triticina) | Diseased leaf area (%) (Pyrenophora teres)
CO/C=C(/C(=O)OC)c1cccc(C)c1CO/N=C(\COC)c1ccc(F)cc1Cl [Compound 3] | 5% | 1% | 4% | 7% | – | –
CO/C=C(/C(=O)OC)c1cccc(C)c1CO/N=C(\COC)c1c(F)cc(F)cc1F [Compound 4, methyl (E)-3-methoxy-2-[2-[[(Z)-[2-methoxy-1-(2,4,6-trifluorophenyl)ethylidene]amino]oxymethyl]-3-methyl-phenyl]prop-2-enoate] | 5% | 0% | 0% | 15% | 12% | 4%
COC/C(=N\OCc1c(C)cccc1/C(=N\OC)C(=O)OC)c1c(F)cc(F)cc1F [Compound 2, methyl (2E)-2-methoxyimino-2-[2-[[(Z)-[2-methoxy-1-(2,4,6-trifluorophenyl)ethylidene]amino]oxymethyl]-3-methyl-phenyl]acetate] | 13% | 6% | 7% | – | – | 13%
CNC(=O)/C(=N/OC)c1cccc(C)c1CO/N=C(\COC)c1ccc(F)c(F)c1 [Compound 5, (2E)-2-[2-[[(Z)-[1-(3,4-difluorophenyl)-2-methoxy-ethylidene]amino]oxymethyl]-3-methylphenyl]-2-methoxyimino-N-methyl-acetamide] | 3% | 0% | 0% | 1% | 12% | 4%
CNC(=O)/C(=N/OC)c1cccc(C)c1CO/N=C(\COC)c1c(F)cc(F)cc1F [Compound 1, (2E)-2-methoxyimino-2-[2-[[(Z)-[2-methoxy-1-(2,4,6-trifluorophenyl)ethylidene]amino]oxymethyl]-3-methyl-phenyl]-N-methyl-acetamide] | 11% | 0% | 0% | 0% | – | 10%
CNC(=O)/C(=N/OC)c1cccc(C)c1CO/N=C(\COC)c1c(F)cc(OC)cc1F [Compound 7, (2E)-2-[2-[[(Z)-[1-(2,6-difluoro-4-methoxy-phenyl)-2-methoxy-ethylidene]amino]oxymethyl]-3-methyl-phenyl]-2-methoxyimino-N-methyl-acetamide] | – | 0% | 1% | 0% | 4% | 6%
CO/C=C(/C(=O)OC)c1cccc(C)c1CO/N=C(\COC)c1ccc(Cl)cc1Cl [Compound 6, methyl (E)-2-[2-[[(Z)-[1-(2,4-dichlorophenyl)-2-methoxy-ethylidene]amino]oxymethyl]-3-methyl-phenyl]-3-methoxy-prop-2-enoate] | – | 13% | 9% | – | 5% | –
